Eight sequences from paper PMC4528135, “Kinetic Investigations of the Role of Factor Inhibiting Hypoxia-inducible Factor (FIH) as an Oxygen Sensor” (The Journal of Biological Chemistry, 2015) can be followed below.

Values joined by “and” are separate entries in the source; they are usually repeats but may differ in a detail not shown here. Equal values may be shown once.

Holding throughout (assay type): biochemical
One assay has as its target T1, PHD2 (Homo sapiens, UniProt Q9GZT9).
T1 construct: The catalytic domain of PHD2 (residues 181–426) was purified as described; made in house
The assay can be described thus: O2 dependence of PHD2-catalyzed hydroxylation (sealed vials, N2/O2 mixes). As to conditions: PHD2 with the named 19-mer substrate; 4 μM PHD2, 50 μM Fe(II), 4 mM L-ascorbate, 50 mM HEPES pH 7.5, 37 °C, O2 levels set by mass flow controllers; triplicate assays; read-out: Km^app(O2). How it is done:
The O2 dependence of FIH-catalyzed reactions was determined by conducting enzymatic assays in an “In vivo 500 Hypoxia Workstation” (Ruskinn) using buffers pre-equilibrated under different pO2 values for 24 h. The O2 dependence of PHD2-catalyzed reactions was determined by conducting enzymatic assays in sealed glass vials with variable N2/O2 contents ([42]). Reactions were stopped by spotting samples onto a matrix-assisted laser desorption/ionization-time of flight mass spectrometry (MALDI-TOF-MS) target plate and immediately mixing with α-cyano-4-hydroxycinnamic acid matrix. Hydroxylation levels were assessed by MALDI-TOF-MS as described ([46]).
FIGURE 4. O2 dependence of FIH- and PHD2-catalyzed hydroxylation of HIF-1/2α. A, O2 dependence of PHD2-catalyzed hydroxylation of HIF-1/2α CODD/NODD 19-mer peptides. 4 μM PHD2, peptide (varied), 50 μM Fe(II), 2OG (varied), 4 mM L-ascorbate in HEPES 50 mM (pH 7.5) were incubated at 37 °C. The different O2 levels were maintained using mass flow controllers ([42]), and the hydroxylation levels were analyzed by MALDI-TOF-MS. B, O2 dependence of FIH-catalyzed hydroxylation of CAD HIF-1/2α 35-mer peptides. Conditions were as follows. 5 μM FIH, 500 μM peptide, 50 μM Fe(II), 1 mM 2OG, 1 mM L-ascorbate in HEPES 50 mM (pH 7.5) were incubated at 37 °C in a hypoxia work station under different pO2. […] Error bars, S.D. of triplicate assays.

Assay [1] deals with T2, FIH (Homo sapiens, UniProt Q9NWT6).
T2 construct: Full-length recombinant FIH, two- and three-consensus ankyrin repeats (2CA and 3CA) were produced as described; His6 (cleaved yes); made in house; host or cells: Escherichia coli BL21(DE3)
T2 sequence (Q9NWT6 whole entry): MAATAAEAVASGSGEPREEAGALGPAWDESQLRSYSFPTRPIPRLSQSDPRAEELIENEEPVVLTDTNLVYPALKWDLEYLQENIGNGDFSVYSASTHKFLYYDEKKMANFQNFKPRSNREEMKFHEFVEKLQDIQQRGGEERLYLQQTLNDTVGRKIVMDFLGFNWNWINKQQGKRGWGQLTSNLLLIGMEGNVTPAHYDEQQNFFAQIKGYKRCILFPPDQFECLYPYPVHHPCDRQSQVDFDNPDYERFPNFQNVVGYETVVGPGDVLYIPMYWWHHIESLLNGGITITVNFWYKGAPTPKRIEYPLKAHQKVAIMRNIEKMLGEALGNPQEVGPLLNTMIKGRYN
The assay can be described thus: Rapid quench-flow, FIH pre-steady-state product and succinate formation. The settings on record: for Rapid quench-flow kproduct / Rapid quench-flow ksuccinate: 0.5 mM apo-FIH, 0.4 mM Fe(II), 5 mM 2OG, 1 mM substrate, 50 mM HEPES pH 7.5, O2-saturated buffer 1:1, 5 °C, quenched with 1% CF3CO2H; for Rapid quench-flow kproduct: hydroxylation by MALDI-TOF-MS, 1–3 separate experiments; for Rapid quench-flow ksuccinate: succinate by LC-MS. How it is done: Rapid quench-flow experiments were performed using the same conditions and preparation of the assay mixture as used in stopped-flow experiments. Rapid quench-flow equipment (TgK Scientific Ltd.) in an anaerobic glove box was used for the experiments. Samples were quenched with 1% CF3CO2H and analyzed using MALDI-TOF-MS (peptide hydroxylation) as described above or liquid chromatography-mass spectrometry (LC-MS, for succinate production). For LC-MS, chromatographic separation was performed at 50 °C using a Waters ACQUITY BEH Amide 1.7-μm, 2.1 × 100-mm column on a Waters ACQUITY^TM ultraperformance liquid chromatography system (Waters Corp., Milford, MA). The following eluents were used: mobile phase A: 10% H2O, 90% acetonitrile (v/v), 10 mM ammonium formate; mobile phase B: 50% H2O, 50% acetonitrile (v/v), 10 mM ammonium formate. The elution gradient was 0–7.0 min linear from 10 to 30% B, and 7.0–9.0 min at 10% B for re-equilibration of the column. A constant flow rate of 0.4 ml/min was used. Analytes were detected in negative ionization mode using single reaction monitoring on a Quattro triple quadrupole mass spectrometer (Waters) with a cone voltage of 15 V and a capillary voltage of 3.0 kV. The desolvation temperature was set to 250 °C, and the source temperature was set to 120 °C.
FIGURE 9. Rapid quench-flow experiments showing FIH-catalyzed hydroxylation of HIF-1/2α CAD and ARD substrates. Reaction mixtures containing anaerobic 0.5 mM apo-FIH, 0.4 mM Fe(II), 5 mM 2OG, 1 mM peptide in HEPES 50 mM (pH 7.5) were rapidly mixed with O2-saturated buffer at 5 °C in a 1:1 ratio and then quenched with 1% CF3CO2H at defined time points. The data were fitted with the function, y = a·(1 − exp(−bx)) + c. Hydroxylation levels were assessed by MALDI-TOF-MS. A, hydroxylation of HIF-1α CAD, 1CA, and tankyrase-1 peptide substrates (19- and 20-mers); B, hydroxylation of HIF-1α, HIF-2α, and tankyrase-1 35-mer peptide substrates; C, hydroxylation of 1CA, 2CA, and 3CA. Data plotted were cumulatively acquired over the course of 1–3 separate experiments.

Assay [2] has as its target T2, FIH. Put plainly: Time course of FIH-catalyzed peptide hydroxylation. As to conditions: 5 μM FIH, 500 μM peptide, atmospheric O2; for substrate hydroxylation (time course): 50 μM Fe(II), 500 μM 2OG, 1 mM L-ascorbate, 50 mM HEPES pH 7.5, 37 °C, MALDI-TOF-MS, triplicate assays. As for the experimental part:
Enzymatic assays were conducted as described ([46], [47]). Unless otherwise stated, the assay mixture typically contained 5 μM FIH, 500 μM substrate, 500 μM 2OG, 1 mM L-ascorbate, and 50 μM Fe(NH4)2(SO4)2 or 4 μM PHD2, 100 μM substrate, 300 μM 2OG, 4 mM L-ascorbate, and 50 μM Fe(NH4)2(SO4)2. For HIF-1α CODD19-mer, the background levels of methionine oxidation resulting from assay conditions were subtracted based on non-enzymatic controls ([48]).
FIGURE 3. PHD2- and FIH-catalyzed hydroxylation of HIF-1/2α peptide substrates. A, time course of HIF-1/2α CODD19-mer peptide hydroxylation; B, time course of HIF-1/2α NODD19-mer peptide hydroxylation. Conditions were as follows: 4 μM PHD2, 100 μM peptide, 50 μM Fe(II), 300 μM 2OG, 1 mM L-ascorbate in HEPES 50 mM (pH 7.5) were incubated at 37 °C at atmospheric O2. C, time course of HIF-1α CAD 19- and 35-mer peptide hydroxylation. D, time course of HIF-2α CAD 19- and 35-mer peptide hydroxylation. Conditions were as follows: 5 μM FIH, 500 μM peptide, 50 μM Fe(II), 500 μM 2OG, 1 mM L-ascorbate in HEPES 50 mM (pH 7.5) were incubated at 37 °C at atmospheric O2. The different hydroxylation levels were analyzed by MALDI-TOF-MS. Error bars, S.D. of triplicate assays.

T1 sequence (Q9GZT9 181-426): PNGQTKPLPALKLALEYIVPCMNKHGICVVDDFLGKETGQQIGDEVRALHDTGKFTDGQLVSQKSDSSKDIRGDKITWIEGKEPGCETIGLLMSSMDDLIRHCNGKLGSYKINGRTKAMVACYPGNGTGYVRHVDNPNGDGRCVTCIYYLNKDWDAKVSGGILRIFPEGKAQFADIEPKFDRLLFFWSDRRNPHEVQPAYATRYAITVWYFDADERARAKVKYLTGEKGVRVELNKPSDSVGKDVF

In the case of “EELAQLAPTPGDAIISLDF [HIF-2α NODD, 19-mer fragment (398–416) of the HIF-2α N-terminal oxygen-dependent degradation domain, PHD2 substrate]”, the Michaelis constant (Km) at PHD2 amounted to 410 ± 80 µM.

For the sequence “DESGLPQLTSYDCEVNAPIQGSRNLLQGEELLRAL [HIF-1α CAD35-mer]”, the results for the Rapid quench-flow kproduct at FIH [1] and on FIH [1] (listed as CAD HIF-1α35-mer) were 0.33 s⁻¹ and 0.33 ± 0.07 s⁻¹, respectively. In addition, the Rapid quench-flow ksuccinate on FIH [1] turned out to be 0.3 ± 0.1 s⁻¹. The “substrate hydroxylation (time course)” value at FIH [2] is recorded as “nearly complete substrate hydroxylation”.

For the sequence “SDKNGSTPLHLAARNGHLEVVKLLLEHGADVNAQDKWGKTAFDISIDNGNEDLAEILQ [2CA, recombinant two-consensus ankyrin repeat protein produced in Escherichia coli]”, the Rapid quench-flow kproduct on FIH [1] turned out to be 0.5 ± 0.1 s⁻¹.

On FIH [1], “ESYLLPELTRYDCEVNVPVLGSSTLLQGGDLLRAL [HIF-2α CAD35-mer]” gave a Rapid quench-flow kproduct of 0.12 ± 0.01 s⁻¹ and a Rapid quench-flow ksuccinate of 0.11 ± 0.03 s⁻¹. Also, the “substrate hydroxylation (time course)” value at FIH [2] is listed as under 30%. For the same sequence, the “increase in activity on increasing peptide length (19-mer to 35-mer)” value on FIH [2] (standard conditions, 37 °C) stood at 10%.

On FIH [1], HLEVVKLLLEAGADVNAQDK [1CA20-mer] gave a Rapid quench-flow kproduct of 1.3 ± 0.2 s⁻¹ and a Rapid quench-flow ksuccinate of 0.8 ± 0.3 s⁻¹. At FIH [1] (rapid quench-flow, 5 °C), the “product accumulation rate, fold faster than the reaction with HIF 35-mer substrates” value is on record as about 10 fold.

For “ELDLETLAPYIPMDGEDFQ [HIF-2α CODD, 19-mer fragment (523–541) of the HIF-2α C-terminal oxygen-dependent degradation domain, PHD2 substrate]”, the Km on PHD2 was over 450 µM.

At FIH [1], “AAGYNNLEVAEYLLEHGADVNAQDKGGLIPLHNAA [tnkrs-1_35-mer, 35-mer fragment of tankyrase-1, ARD substrate of FIH]” registered a Rapid quench-flow kproduct of 11 ± 3 s⁻¹ and a Rapid quench-flow ksuccinate of 10 ± 3 s⁻¹. In addition, the Rapid quench-flow kproduct at FIH [1] (listed as tnkrs-1_35mer) was found to be 11 s⁻¹. On FIH [1] (rapid quench-flow, 5 °C), the “product formation rate, fold faster than for the 20-mer” value is about 7 fold.

Take “GSHMGSDLGKKLLEAARAGQDDEVRILMANGADVAAKDKNGSTPLHLAARNGHLEVVKLLLEAGADVNAQDKFGKTAFDISIDNGNEDLAEILQ [3CA, recombinant three-consensus ankyrin repeat protein produced in Escherichia coli]”: the Rapid quench-flow kproduct on FIH [1] was 0.051 s⁻¹ and 0.051 ± 0.001 s⁻¹.

As usually defined, the Km is the substrate concentration at which the rate is half of its maximum.
